Source: article PMC8359193, “Summary of reference chemicals evaluated by the fish short‐term reproduction assay, OECD TG229, using Japanese Medaka, Oryzias latipes” (Journal of Applied Toxicology, 2021)
Counter-ions that a name gives are not always drawn.

Key:
Japanese medaka = settings: MMT; ref Flynn et al. (2017); cited from earlier work
[1] = system: Japanese medaka (Oryzias latipes); test: Fish short-term reproduction assay (FSTRA, OECD TG229), 21-day flow-through exposure; settings: for Fertility rate (%) / Mortality (%) Female / Mortality (%) Male / Number of fertilized eggs / Number of total eggs / SSC Female / SSC Male / VTG (ng/mg of liver) Female / VTG (ng/mg of liver) Male: 21 days; for GSI Female / GSI Male / HSI Female / HSI Male / Length Female / Length Male / Weight Female / Weight Male: at completion of exposure
Method: The experimental studies on the FSTRA for the 16 chemicals were conducted in two laboratories in Japan, the National Institute for Environmental Studies (NIES, Lab‐1) and the Institute of Environmental Ecology, IDEA Consultants Inc. (Lab‐2), in accordance with OECD TG229 (OECD, [2012a]) (Table 1).
The NIES‐R strain of Japanese medaka (O. latipes), one of the orange‐red varieties, was used in all the 16 chemical studies. For the studies, healthy and mature male and female medakas at 16 ± 2 weeks old were selected from a single‐stock population, which were bred within the test facilities. The test fish were maintained in conditions similar to the assay for at least 7 days, and spawning status was checked during the acclimation period. On the day the chemical exposure commenced, to ensure balanced distribution of test fish between the treatment groups for the reproductive status of the fish, the replicate vessels (fish tanks), with each containing three male and female medaka, were distributed to each treatment and control group, for example, by a randomized block design based on the number of fertilized eggs laid in the last 5–7 days during the acclimation, in each assay.
The water solubility of the test chemical was also taken into consideration when deciding the highest test concentration. To set the lower concentrations, a spacing factor ranging between two and five was used. All assays included a dilution water control (DWC).
Test solutions at the selected concentrations were prepared by diluting a stock solution, which was prepared by an adequate method depending on the physicochemical properties of the test chemicals, for example, by simply mixing the test chemical in dilution water by stirring and/or sonicating for an appropriate time or by using a solid–liquid saturator. In the two laboratories, flow‐through exposure systems, in which a series of test solutions at the target concentrations can be continuously prepared and delivered to test vessels at controlled flow rates (Haselman et al., [2016]; Watanabe et al., [2017]), were used for the exposure experiments.
In the FSTRA, three mature adult males and females in a test vessel were exposed together to the test chemicals in flow‐through condition for 3 weeks. In all the assays, each treatment group, including the DWC group, contained four replicate tanks. During the exposure period, the fish were fed a sufficient amount of live brine shrimp nauplii (newly hatched Artemia sp.) for daily spawning ad libitum. Fecal material in the tanks was appropriately removed by siphoning after feeding. Water temperature of test solutions was recorded for at least one vessel in each treatment and control group every day and for all vessels at least once a week. Furthermore, dissolved oxygen and pH of test solutions were measured for all test vessels at least once a week. Mortality and abnormal behavior and appearance in the fish exposed to test chemicals were daily observed, and any fish that died were removed from the tank as soon as possible. To assess the reproductive status, all eggs females spawned were collected every day. At the completion of the chemical exposure, surviving fish in each tank were sampled.
The eggs females released on the bottom of the tank were collected by siphoning, and the egg clutches still on female abdomen were carefully picked from the body of the females captured using a small net. All the eggs collected were microscopically observed and separately counted for fertilized and unfertilized.

[2] = hepatic VTG, 21-day exposure, measured conc.

CC/C(=C(\c1ccccc1)c1ccc(OCCN(C)C)cc1)c1ccccc1 [TAM, tamoxifen citrate]
LOEC on female VTG (reduction) (Japanese medaka): 1.3 µg/L
time from initiation of treatment to drastic reduction of daily fecundity ([1]; both, NIES-R, Japanese medaka (Oryzias latipes), in vivo): ≤ 3 days
LOEC for VTG induction in males [1, 2]: 10.0 µg/L
LOEC for decrease of VTG in females [1, 2]: 10.0 µg/L
LOEC on female VTG: times lower than that for RAL ([1]; in vivo): 70 times
Fertility rate (%) ([1]; measured conc. 10.0 μg/L): 94%
Mortality (%) Female ([1]; measured conc. 10.0 μg/L): 0%
Mortality (%) Male ([1]; measured conc. 10.0 μg/L): 0%
Number of fertilized eggs ([1]; measured conc. 10.0 μg/L): 12
Number of total eggs ([1]; measured conc. 10.0 μg/L): 13 ± 1.1 /female/day
SSC Female ([1]; measured conc. 10.0 μg/L): 0 ± 0
SSC Male ([1]; measured conc. 10.0 μg/L): 85 ± 11
VTG (ng/mg of liver) Female ([1]; measured conc. 10.0 μg/L): 666 ± 96 ng/mg of liver
VTG (ng/mg of liver) Male ([1]; measured conc. 10.0 μg/L): 181 ± 30.0 ng/mg of liver
GSI Female ([1]; measured conc. 10.0 μg/L): 7.3%
GSI Male ([1]; measured conc. 10.0 μg/L): 0.89%
HSI Female ([1]; measured conc. 10.0 μg/L): 3.6%
HSI Male ([1]; measured conc. 10.0 μg/L): 2.2%
Length Female ([1]; measured conc. 10.0 μg/L): 32.3 mm
Length Male ([1]; measured conc. 10.0 μg/L): 33.6 mm
Weight Female ([1]; measured conc. 10.0 μg/L): 369 mg
Weight Male ([1]; measured conc. 10.0 μg/L): 419 mg
Fertility rate (%) ([1]; measured conc. 83.3 μg/L): 76%
Mortality (%) Female ([1]; measured conc. 83.3 μg/L): 8.3%
Mortality (%) Male ([1]; measured conc. 83.3 μg/L): 0%
Number of fertilized eggs ([1]; measured conc. 83.3 μg/L): 1.6
Number of total eggs ([1]; measured conc. 83.3 μg/L): 2.2 ± 0.8 /female/day
SSC Female ([1]; measured conc. 83.3 μg/L): 0 ± 0
SSC Male ([1]; measured conc. 83.3 μg/L): 85 ± 7.0
VTG (ng/mg of liver) Female ([1]; measured conc. 83.3 μg/L): 335 ± 138 ng/mg of liver
VTG (ng/mg of liver) Male ([1]; measured conc. 83.3 μg/L): 319 ± 126 ng/mg of liver
GSI Female ([1]; measured conc. 83.3 μg/L): 11.5%
GSI Male ([1]; measured conc. 83.3 μg/L): 0.87%
HSI Female ([1]; measured conc. 83.3 μg/L): 4.2%
HSI Male ([1]; measured conc. 83.3 μg/L): 2.5%
Length Female ([1]; measured conc. 83.3 μg/L): 32.9 mm
Length Male ([1]; measured conc. 83.3 μg/L): 32.5 mm
Weight Female ([1]; measured conc. 83.3 μg/L): 418 mg
Weight Male ([1]; measured conc. 83.3 μg/L): 374 mg
effect on fecundity (number of total eggs), in words ([1]; within the test concentrations, 21-day exposure): statistically significant decrease
